Holding throughout (assay): DTP human tumour cell line panel, 48 h
Test [1] relates to NCI-H23 lung.
Test [2] has as its system RXF 393 renal.
In test [3] the test system is NCI-H522 lung.
In test [4] the test system is HCC-2998 colon.
For test [5], the system named is OVCAR-8 ovarian.
Test [6] deals with HS 578T breast.
Test [7] concerns DU-145 prostate.
Test [8] deals with BT-549 breast.
The subject of test [9] is NCI/ADR-RES ovarian.
For test [10], the system named is M14 melanoma.

As a reminder, the TGI is the concentration at which net growth stops. What is called GI50 is the concentration at which growth is held to half of that of the control.

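Cultured in 96-well plates, cells were exposed to test compound for 48 hours across five concentrations. GI50: concentration for 50% inhibition of growth. TGI: concentration producing complete growth inhibition.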 Some results are limits rather than exact numbers.

In the case of `COc1ccc(C(CC(=O)c2ccc3c(c2)OCO3)c2c(O)c3ccccc3oc2=O)cc1OC` (centres undefined), the total growth inhibition concentration (TGI) in test [1], in test [2], in [3], in [4], in test [5] and in [6] was > 100 µM each time. For the same compound, the total growth inhibition concentration (TGI) in test [7], in test [8] and in test [9] was > 100 µM each time.

With `COC(c1ccc(C(C)(C)C)cc1)(c1ccc(C(C)(C)C)cc1)c1ccc(C(C)(C)C)cc1`, the TGI in test [1], in [3], in test [10], in [4], in test [5] and in test [6] was > 100 µM throughout. Further, the TGI in test [7], in test [8] and in test [9] was > 100 µM throughout.

`O=C(c1ccco1)c1c(C(F)(F)F)n([O-])c2ccc(C(F)(F)F)cc2[n+]1=O`: the GI50 in test [1] is 0.853 µM; in [2], 0.179 µM; in [3], 0.462 µM; in test [10], 1.04 µM; in test [4], 1.04 µM; in [5], 0.31 µM. Also, the GI50 was 0.654 µM in [6], 0.5 µM in test [7], 0.177 µM in test [8] and 0.257 µM in [9]. The TGI is 2.3 µM in test [1]; 0.512 µM in [2]; 1.16 µM in test [3]; 2.48 µM in [10]; 2.5 µM in test [4]; 1.15 µM in test [5]. The TGI stood at 2.74 µM in test [6], 0.925 µM in test [7], 0.339 µM in test [8] and 0.939 µM in [9].

In the case of `COc1cc2c(/C=N\N=C(N)N)c[nH]c2cc1C`, the GI50 in [1] is 18.7 µM; in test [2], 62.1 µM; in test [3], 17.3 µM; in [10], 15.1 µM; in test [4], 15.8 µM; in [5], 40.2 µM. Further, the GI50 in [6] was 18.5 µM; in test [8], 15.3 µM; in test [9], 22 µM. Also, the TGI in [1] is 53.5 µM; in test [2], > 100 µM; in [3], 32.9 µM; in test [10], 28.3 µM; in test [4], 29.2 µM; in [5], > 100 µM. Further, the TGI in [6] stood at 40 µM; in test [8] it was 28.5 µM; in [9], 59.4 µM.

Regarding `Cc1ccc(OCCOCCOCCOCCOc2ccc(C)n(O)c2=S)c(=S)n1O`, the GI50 in test [1] is 0.0166 µM; in [2] it was 1.55 µM; in test [3], 0.0294 µM; in test [4] it was 0.25 µM; in [5], < 0.0137 µM; in [6], 3.58 µM. Moreover, the GI50 in [7] was 0.184 µM; in test [8], 0.52 µM; in test [9], < 0.0158 µM. Besides, the TGI in test [1] is > 100 µM; in test [2], 22.3 µM; in test [3], > 79.7 µM; in test [4], > 100 µM; in test [5], > 100 µM; in test [6], > 100 µM. Further, the concentration for total growth inhibition (TGI) in [7], in test [8] and in test [9] was > 100 µM each time.

Consider `C#CCOc1cccc(Nc2ncnc3c(NC(=O)C=C)cccc23)c1`, for which the GI50 in test [1] is 24.8 µM; in [2], 13.3 µM; in test [3], 14.1 µM; in [10], 19.4 µM; in [4], 17.7 µM; in test [5], 21 µM. The GI50 in test [6] was 30.3 µM; in test [7], 18.1 µM; in [8] it was 13.9 µM; in test [9], 19.8 µM. The TGI in [1] is > 100 µM; in test [2], 39.7 µM; in test [3], 32.6 µM; in test [10] it was 67.8 µM; in [4], 33.9 µM; in test [5], 70.1 µM. Further, the TGI in test [6] was > 100 µM; in [7], > 100 µM; in test [8] it was 89.9 µM; in [9], 98.1 µM.

As to `CC(C)c1[nH]nc2c1N=C(c1ccccc1Cl)c1cc([N+](=O)[O-])ccc1N2`, the GI50 in test [1] is 7.24 µM; in test [2] it was 3.64 µM; in test [3] it was 2.29 µM; in test [10] it was 7.63 µM; in [4], 6.91 µM; in [5], 9.1 µM. Moreover, the GI50 in test [6] was 3.16 µM; in [7] it was 7.87 µM; in test [8], 6.66 µM; in [9], 6.37 µM. For the same compound, the TGI in test [1] was > 25 µM; in test [2], 8.45 µM; in test [3], > 18.3 µM; in test [10], > 25 µM; in [4] it was > 19.1 µM; in test [5], > 25 µM. Besides, the total growth inhibition concentration (TGI) in test [6] was > 20.7 µM; in test [7], > 23.6 µM; in test [8], > 22.1 µM; in [9] it was > 25 µM.

For `COc1ccc(-c2nccn2-c2ccc(OC)cc2)cc1`, the GI50 was 22.2 µM in [1]; 17.9 µM in test [2]; 17 µM in test [3]; 20.5 µM in [10]; 16.4 µM in test [4]; 23.9 µM in test [5]. The GI50 in [6] is 20.9 µM; in test [7] it was 33.3 µM; in test [8] it was 28.7 µM; in test [9], 20.5 µM. The TGI in [1] is 58.9 µM; in test [2] it was > 80.5 µM; in [3] it was 42.9 µM; in [10], 56.7 µM; in test [4], 33.7 µM; in test [5], 67.5 µM. Also, the TGI is 74.7 µM in test [6], > 93.8 µM in test [7], > 94.5 µM in [8] and 49.4 µM in [9].

The record behind these values is PubChem BioAssay (NCI).
